Patent US20220113299A1, “METHOD OF DYNAMICS ANALYSIS FOR COMPOUND IN CELL” (Hitachi High-Tech Corporation, priority 2019, published 2022)

System: hepatocytes
Test: kinetic analysis of compound efflux in cultured hepatocytes (Test Sections 1 to 3, fluorescence measurement)
Assay type: in vitro ADME, rat
Settings: 30 minutes; for ratio of the amount of compound excreted into the bile duct to the totality of compound taken up into the cells (BiRD): (B1-B2)/(C1+C2), EGTA disrupted vs maintained system, 37° C.; for ratio of the amount of compound excreted into the bile duct to the totality of compound taken up into the cells (BiRD) / ratio of the amount of compound excreted via transporter to the amount of compound excreted basolaterally (RexEMTP): pattern 1; for ratio of the amount of compound excreted via transporter to the amount of compound excreted basolaterally (RexEMTP): (B2-B3)/B2, cultured hepatocytes, 37° C. vs 4° C.; for Sup fraction (fraction of the first basolateral efflux), index for tendency to remain or not to remain in the cells: pattern 2: sum of Steps 4, 5 and 6 = 100%, Step 4, 37° C., in %
Description: Hepatocytes were prepared by in-situ collagenase perfusion method. The details are as follows. A rat (5-6 week-old) is anesthetized with pentobarbital and undergoes laparotomy, followed by insertion of a catheter into the portal vein and injection of a preperfusion solution (a Ca^2+ and Mg^2+ free Hanks' solution containing glycol ether diaminetetraacetic acid (EGTA)). After checking that blood is sufficiently removed from the liver, the perfusion is stopped. Perfusion is performed with the perfusate being changed to a collagenase solution. In this embodiment, the perfusion operates with a Hanks' solution containing 0.05% collagenase, but the collagenase solution is not limited to this. After checking that the tissue between the cells has been digested by collagenase, the perfusion is stopped. The liver is excised, sliced in a cooled Hanks' solution, and separated into cells by pipetting. Damaged hepatocytes are removed by centrifugation at 500 G for 5 minutes with an isotonic Percoll solution. The viability of the resulting hepatocytes is determined by the trypan blue-exclusion test. Hepatocytes having a viability of 85% or more are used for culture. Here, hepatocytes having a viability of 85% or more are used for culture, but such culture is not necessarily limited to the condition. In addition, the preparation of hepatocytes is not necessarily limited to that by in situ collagenase perfusion method. The hepatocytes to be used are not limited to those derived from a rat, and the strain of rat is not limited. This embodiment employs hepatocytes, but cells are not limited to this.
(3) Cells prepared by a procedure as above are suspended in a medium. The hepatocytes are suspended at a density of 5×10^5 cells/mL in the medium and plated onto a commercially available culture dish coated with collagen. The density upon plating, the medium, and the culture plate 001 are not limited. The culture plate is illustrated in FIG. 7. A 24-well culture plate having 24 culture regions (wells, 002) is here illustrated, but the culture plate is not limited to this, and any of containers in other shapes may be used as long as it can contain predetermined cells. After plating, culture is started under conditions of 5% CO2 and 37° C. using a CO2 incubator. After 18 hours or more, the first medium change is performed. This embodiment employs a FCS-medium, which is a medium resulting from removal of FCS from the medium (10% FCS+) and supplementation with Matrigel, as the medium to be used for culture 18 hours after the plating. However, the medium can be any medium. After this, medium change with the medium (FCS−) is performed every 24 hours. As described later, testing is performed under three different conditions in Step 5 (Test Sections 1, 2, and 3; described in detail in Step 5), three independent culture plates under the same conditions are prepared at this point. In Steps 0 to 4 and Step 5, the same testing operations are performed in all the three test sections.
The culture supernatant of the cells cultured in Step 0 for 4 days is removed, and 400 μL of Hanks' solution is added as a buffer. The cells are incubated at 37° C. for 10 minutes (FIG. 2, Step 1). The type and amount of buffer are not limited.
The buffer is removed, and then 200 μL of […] carboxydichlorofluorescein (CDF; a fluorescent reagent) is fed to the well. The plate is incubated at 37° C. for 30 minutes and then maintained at 4° C. for 5 minutes (FIG. 2, Step 2). The type, concentration, and amount of the reagent are not limited. CDF emits fluorescence and can therefore be easily quantified as a model reagent with a plate reader. The amount of administration, 200 μL, was chosen so that the cells as a whole in the well would be immersed in the reagent. The concentration of CDF may be a concentration conventionally used for a fluorescence assay of cells. This concentration is preferably applied also as an amount of the reagent for the detection with a plate reader. […]

Substance	ratio of the amount of compound excreted into the bile duct to the totality of compound taken up into the cells (BiRD)	ratio of the amount of compound excreted via transporter to the amount of compound excreted basolaterally (RexEMTP)	Sup fraction (fraction of the first basolateral efflux), index for tendency to remain or not to remain in the cells
Rhodamine 123	4.92	52.52	39.29
carboxydichlorofluorescein [CDF]	18.58	41.08	70.82
